Measurements from patent US8198322B2, “Apoptotic and anti-tumor activities of metallo-salens” (Board of Regents, The University of Texas System, priority 2008, dated 2012).
Several values for one entry are separate records, joined by “and”; a condition that tells them apart may be missing. Identical values can stand only once. Entries after “also recorded” stand apart in the source; their conditions may differ.

Legend:
[1] = tested on: MCF-7 cells; test: Cell viability assay (MTT, DIC microscopy) at 20 μM; type: cell-based, human; set-up: key to Summary of cell viability activities (active/inactive): Y and N indicates active and inactive compounds respectively; Y and N indicates active and inactive compounds respectively; settings: for Summary of cell viability activities (active/inactive): MCF-7 cells, 20 μM, 24-96 hrs, MTT; for effect on cell viability (in words): MCF-7, 20 μM, up to 96 hrs
Method: (A-F): MCF-7 cells were treated with 20 μM metallo-salens and incubated for varying time periods (24-96 hrs). Viable cells were quantified using MTT assay. The percent viable cells (relative to control, treated with equivalent amount of DMSO) were plotted as a function of time for each compound. This experiment was repeated twice with 8 replicate treatments each time. Bars indicates standard errors of mean (SEM). Curves 1-42 in FIGS. 2A-2F, represent the viability curves for compounds 1-42 respectively. (A′-F′) DIC images of the corresponding MCF-7 cells that were treated with DMSO (control panel), or with 20 μM Mn(III)- and Fe(III)-salen complexes for 72 hrs showing the visual effects on cellular morphology and growth/death.
Cell viability assay: Approximately 10,000 MCF-7 cells were seeded into each well of a 96 well micro titer plate and incubated 24 hrs in presence of 150 μL DMEM. An additional 50 μL DMEM containing required amount of each metallo-salen to obtain 20 μM final concentrations (in 200 μL final volume) in 8 replicate wells were added. Control wells were treated with equivalent amount of dimethylsulfoxide (DMSO). The viability of the cells was assayed at 24, 48, 72 and 96 hrs post treatment by using both microscopic observation and MTT assay. For microscopic observation cells were stained with trypan blue for at least 10 minute and observed under Differential Interference Contrast (DIC) setting of a fluorescence microscope (Nikon Eclipse TE2000-U, Japan). The MTT assay was performed as described previously^42. In brief, 20 μL MTT (5 mg/ml in PBS) was added into each wells and incubated for 2 hrs under normal growth condition to allow the viable cell to convert MTT to formazan. Then the media was discarded and formazan crystals were dissolved by adding 100 μL of DMSO and incubating 2 hrs with continuous shaking. The absorbance of the lysates were directly measured at 560 nm using a micro plate reader (Fluostar-omega, BMG Labtech). The absorbance values (which are proportional to the viable cell) are plotted as a function of time. The studies were repeated twice with 8 replicates each time.
The inventors studied the effect of Mn(III)-salen and Fe(III)-salen derivatives on the cell viability of cultured breast cancer cells MCF-7 in order to investigate the biochemical effects of the derivatives. The cells were incubated alone or with 20 μM of each of the metallo-salen derivatives separately (compounds 1-45) for varying time periods (0-96 hrs). The viable cells were quantified using MTT assay and the percent of cell survived (relative to the control untreated cells) were plotted against time (FIGS. 2A-2F).

[2] = tested on: MCF-7 cells; test: Cytotoxicity assay (IC50 measurement, MTT); type: cell-based, human; settings: MCF-7, 96 hrs, read-out: IC50 values for different complexes in MCF-7 cells
Method: Cytotoxicity assay (IC50 measurement): The cytotoxicity of Fe(III)-salen and its derivatives was determined by using MTT assay as described previously^42. In brief, approximately 10,000 MCF-7 cells were seeded into each well of a 96 well micro titer plate and incubated 24 hrs in presence of 150 μL DMEM. An additional 50 μL DMEM containing required amount of each metallo-salen to obtain 0.05 to 60 μM final concentration (in 200 μL final volume) in 8 replicate wells were added. Control wells were treated with equivalent amount of DMSO. After 96 hrs of incubation, 20 μL of MTT (5 mg/mL) was added into each well and cell viability was assayed by measuring the formazan absorption at 560 nm as described above. The absorbance (at 560 nm) values were plotted against concentration of metallo-salens to determine the IC50. The studies were repeated twice with 8 replicates each time.
The concentration of the metal-complexes at which the conversion of MTT to formazan by viable cells is reduced by 50% compared to control cells is defined as the IC50. The percent of cell survival relative to the control cells were plotted as a function of concentration of the metallo-salen derivatives.

Compound | Summary of cell viability activities (active/inactive) [1] | IC50 [2] | effect on cell viability (in words) [1]
5,5′-Dimethoxysalnaphen Fe(III) chloride [compound 42] | Y (42) | 1.24 µM | 
N.N.[Cl][Pt][Cl] [cis-platin, Cis-diaminodichloro-platinum(II), reference compound] |  | ~20 µM | 
CC(=O)[O-].[Mn+3].[O-]c1ccccc1C=NCCN=Cc1ccccc1[O-] [compound 1, Mn(III)-salen acetate] | Y^b (1) | 20.4 µM and 20.5 µM | 
CC(=O)[O-].[Mn+3].[O-]c1c(O)cccc1C=NCCN=Cc1cccc(O)c1[O-] [compound 2, 3,3′-Dihydroxysalen Mn(III) acetate] | Y (2) | 37 µM | 
CC(=O)[O-].[Mn+3].[O-]c1cc(O)ccc1C=NCCN=Cc1ccc(O)cc1[O-] [compound 3, 4,4′-Dihydroxysalen Mn(III) acetate] | N^b (3) |  | did not have any significant effect on cell viability; also recorded: not active
CC(=O)[O-].[Mn+3].[O-]c1ccc(O)cc1C=NCCN=Cc1cc(O)ccc1[O-] [compound 4, 5,5′-Dihydroxysalen Mn(III) acetate] | Y (4) | 43.1 µM | effective in inducing cell death
CC(=O)[O-].COc1cccc(C=NCCN=Cc2cccc(OC)c2[O-])c1[O-].[Mn+3] [compound 5, 3,3′-Dimethoxysalen Mn(III) acetate] | Y (5) | 17.7 µM | 
CC(=O)[O-].COc1ccc([O-])c(C=NCCN=Cc2cc(OC)ccc2[O-])c1.[Mn+3] [compound 7, 5,5′-Dimethoxysalen Mn(III) acetate] | Y (7) | 16.1 µM | 
CC(=O)[O-].[Mn+3].[O-]c1ccccc1C=Nc1ccccc1N=Cc1ccccc1[O-] [compound 8, Mn(III)-salphen acetate] | Y (8) | 15 µM | 
CC(=O)[O-].[Mn+3].[O-]c1cc(O)ccc1C=Nc1ccccc1N=Cc1ccc(O)cc1[O-] [compound 10, 4,4′-Dihydroxysalphen Mn(III) acetate] | N (10) |  | not active
CC(=O)[O-].[Mn+3].[O-]c1ccc(O)cc1C=Nc1ccccc1N=Cc1cc(O)ccc1[O-] [compound 11, 5,5′-Dihydroxysalphen Mn(III) acetate] | Y (11) | 45.6 µM | effective in inducing cell death
CC(=O)[O-].COc1cccc(C=Nc2ccccc2N=Cc2cccc(OC)c2[O-])c1[O-].[Mn+3] [compound 12, 3,3′-Dimethoxysalphen Mn(III) acetate] | Y (12) | 22.2 µM | 
CC(=O)[O-].COc1ccc(C=Nc2ccccc2N=Cc2ccc(OC)cc2[O-])c([O-])c1.[Mn+3] [compound 13, 4,4′-Dimethoxysalphen Mn(III) acetate] | Y (13) | 15.5 µM and 15.6 µM | most effective on inducing cell death
CC(=O)[O-].COc1ccc([O-])c(C=Nc2ccccc2N=Cc2cc(OC)ccc2[O-])c1.[Mn+3] [compound 14, 5,5′-Dimethoxysalphen Mn(III) acetate] | Y (14) | 55.9 µM | 
CC(=O)[O-].[Mn+3].[O-]c1ccccc1C=Nc1cc2ccccc2cc1N=Cc1ccccc1[O-] [compound 15, Mn(III)-salnaphen acetate] | Y (15) | 15.5 µM and 15.6 µM | most effective on inducing cell death
CC(=O)[O-].[Mn+3].[O-]c1ccc(O)cc1C=Nc1cc2ccccc2cc1N=Cc1cc(O)ccc1[O-] [compound 18, 5,5′-Dihydroxysalnaphen Mn(III) acetate] | N (18) |  | inactive
[Cl-].[Fe+3].[O-]c1c(O)cccc1C=NCCN=Cc1cccc(O)c1[O-] [compound 23, 3,3′-Dihydroxysalen Fe(III) chloride] | N (23) |  | 
[Cl-].[Fe+3].[O-]c1cc(O)ccc1C=NCCN=Cc1ccc(O)cc1[O-] [compound 24, 4,4′-Dihydroxysalen Fe(III) chloride] | N (24) |  | 
[Cl-].[Fe+3].[O-]c1ccc(O)cc1C=NCCN=Cc1cc(O)ccc1[O-] [compound 25, 5,5′-Dihydroxysalen Fe(III) chloride] | N (25) |  | 
COc1cccc(C=NCCN=Cc2cccc(OC)c2[O-])c1[O-].[Cl-].[Fe+3] [compound 26, 3,3′-Dimethoxysalen Fe(III) chloride] | N (26) |  | did not show any significant effect on cell viability
[Cl-].[Fe+3].[O-]c1cc(O)ccc1C=Nc1ccccc1N=Cc1ccc(O)cc1[O-] [compound 31, 4,4′-Dihydroxysalphen Fe(III) chloride] | N (31) |  | did not have any effects on cell viability
[Cl-].[Fe+3].[O-]c1ccc(O)cc1C=Nc1ccccc1N=Cc1cc(O)ccc1[O-] [compound 32, 5,5′-Dihydroxysalphen Fe(III) chloride] | N (32) |  | did not have any effects on cell viability
[Cl-].[Fe+3].[O-]c1cc(O)ccc1C=Nc1cc2ccccc2cc1N=Cc1ccc(O)cc1[O-] [compound 38, 4,4′-Dihydroxysalnaphen Fe(III) chloride] | N (38) |  | did not have any effects on cell viability
[Cl-].[Fe+3].[O-]c1ccc(O)cc1C=Nc1cc2ccccc2cc1N=Cc1cc(O)ccc1[O-] [compound 39, 5,5′-Dihydroxysalnaphen Fe(III) chloride] | N (39) |  | did not have any effects on cell viability
[Cl-].[Fe+3].[O-]c1ccccc1C=NCCCN=Cc1ccccc1[O-] [compound 43, Bis(salicylidene)propanediamine Fe(III) chloride] |  |  | almost no cell killing activity
[Cl-].[Fe+3].[O-]c1ccccc1C=NCCCCN=Cc1ccccc1[O-] [compound 44, Bis(salicylidene)butanediamine Fe(III) chloride] |  |  | almost no cell killing activity
Fe(III)-carboxysalphen] chloride [compound 45] |  |  | almost no cell killing activity
